The text below walks through data of patent publication US10993983B2, “Cyclic peptide epitopes and small-molecule mimics for inducing autophagy” (TRUSTEES OF TUFTS COLLEGE, priority 2016, dated 2021).

One assay relates to HeLa cells. The experiment in a line: Autophagy induction judged by p62 and LC3 immunoblots together. Format: cell-based. Particulars: HeLa cells, immunoblot, 3 hour treatment. The method in brief: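 HeLa cells exposed to peptide (acetyl N-cap, C-terminal amide) for 3 h in acidified OPTI-MEM, then lysed and immunoblotted for p62 and LC3. Activity is the lowest concentration giving both p62 degradation and LC3-I to LC3-II conversion, scored semi-quantitatively.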

Assay [1] deals with HeLa-htt103Q cells. The experiment in a line: Htt aggregate assay. It is filed as cell-based. Particulars: 12.5 μM. The procedure:
Along with proteasomal degradation, autophagy is the major pathway by which aggregated proteins are removed from the cytoplasm.
HeLa-htt103Q cells were cultured as described previously.^60 For the Htt103Q aggregate assay, cells were fixed with 2% PFA in PBS and CFP-positive aggregates […] were counted via fluorescence microscopy by an observer blinded to experimental condition.

In a further assay the test system is GFP-LC3 transgenic mice. Conditions: background; 20 mg/kg; cited from earlier work.
The test system of assay [2] is HeLa-htt103Q cells. Particulars: 20 μM; previously shown; cited from earlier work.
For assay [3] the following is noted: background; cited from earlier work.

Consider “YGRKKRRQRRRGGTNVFNATFEIWHDGEFGT [Tat-Beclin 1]”, for which the “concentration at which autophagy induction (p62 degradation and LC3 lipidation) was observed” value in the assay on HeLa cells is 10 µM. Also, in the assay on HeLa-htt103Q cells [1], the “activity in htt103Q aggregate assay” value is “no activity”. The “autophagy induction in mice, result in words” value in the assay with GFP-LC3 transgenic mice is “induces autophagy when administered to mice at 20 mg/kg”. Also, the “number of small and large htt103Q aggregates” value with HeLa-htt103Q cells [2] was “decrease the number of small, but not large, htt103Q aggregates”. Moreover, in assay [3], the “concentration at which autophagic flux is significantly increased in cell culture” value was 10 µM.
